Earlier results as cited in patent publication US20150141404A1, “NON-IONIC VESICLE FORMULATIONS OF CALCIUM CHANNEL BLOCKERS” (CONTRACT PHARMACEUTICALS LIMITED, priority 2012, published 2015).

System: anal fissure
Conditions: topical

In the case of COc1ccc([C@@H]2Sc3ccccc3N(CCN(C)C)C(=O)[C@@H]2OC(C)=O)cc1 [diltiazem, Diltiazem], the healing rates is listed as “improved” and the “maximum resting pressure (MRP)” value is listed as “reduces”.
